This assay relates to BDF1 mice, P388 leukemia ip, median survival T/C. In words: NCI In Vivo Anticancer Drug Screen. Data for tumor model P388 Leukemia (intraperitoneal) in B6D2F1 (BDF1) mice. As to conditions: endpoint: median survival time, higher = longer survival. Summed up: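 Read-out is survival of treated animals expressed relative to the vehicle group, as a T/C ratio.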
Setting [1] is: dose: 25.0 mg/kg/injection, schedule: Q01DX009 (ip), vehicle: saline.
Where [2] appears, read: dose: 50.0 mg/kg/injection, schedule: Q01DX009 (ip), vehicle: saline.
[3] abbreviates: dose: 100.0 mg/kg/injection, schedule: Q01DX009 (ip), vehicle: saline.
Setting [4] is: dose: 100.0 mg/kg/injection, schedule: Q04DX003 (ip), vehicle: Klucel (hydroxypropylcellulose) (HPC).
The mark [5] stands for this setting: dose: 200.0 mg/kg/injection, schedule: Q01DX009 (ip), vehicle: saline.
Setting [6] is: dose: 50.0 mg/kg/injection, schedule: Q01DX009 (ip), vehicle: saline with Tween-80.
Where [7] appears, read: dose: 100.0 mg/kg/injection, schedule: Q01DX009 (ip), vehicle: saline with Tween-80.
The mark [8] stands for this setting: dose: 200.0 mg/kg/injection, schedule: Q01DX009 (ip), vehicle: saline with Tween-80.
The mark [9] stands for this setting: dose: 400.0 mg/kg/injection, schedule: Q04DX003 (ip), vehicle: Klucel (hydroxypropylcellulose) (HPC).
[10] abbreviates: dose: 400.0 mg/kg/injection, schedule: Q01DX009 (ip), vehicle: saline with Tween-80.
Setting [11] is: dose: 100.0 mg/kg/injection, schedule: Q04DX003 (ip), vehicle: saline.
Setting [12] is: dose: 200.0 mg/kg/injection, schedule: Q04DX003 (ip), vehicle: saline.
Setting [13] is: dose: 400.0 mg/kg/injection, schedule: Q04DX003 (ip), vehicle: saline.
Setting [14] is: dose: 6.25 mg/kg/injection, schedule: Q01DX009 (ip), vehicle: saline with Tween-80.
Where [15] appears, read: dose: 12.5 mg/kg/injection, schedule: Q01DX009 (ip), vehicle: saline with Tween-80.

SMILES strings stand for the structures. Values joined by “and” are separate entries in the source; they are usually repeats but may differ in a detail not shown here. Equal values may be shown once. Toxic doses and inconclusive results are not listed.

With `O=C1C=CC(=O)N1c1ccc(-c2nc3ccccc3o2)cc1`, the T/C was 121 % of control (dose: 50.0 mg/kg/injection, schedule: Q01DX005 (ip), vehicle: saline with Tween-80) and 100 % of control (dose: 100.0 mg/kg/injection, schedule: Q01DX005 (ip), vehicle: saline with Tween-80).
Regarding `O=c1[nH]nnc2ccccc12`, the T/C was 95 % of control under setting [1]; 100 % of control (dose: 25.0 mg/kg/injection, schedule: Q04DX003 (ip), vehicle: Klucel (hydroxypropylcellulose) (HPC)); 100 % of control (dose: 37.5 mg/kg/injection, schedule: Q04DX003 (ip), vehicle: Klucel (hydroxypropylcellulose) (HPC)); 95 % of control under setting [2]; 104 % of control (dose: 50.0 mg/kg/injection, schedule: Q04DX003 (ip), vehicle: Klucel (hydroxypropylcellulose) (HPC)); 95 % of control (dose: 75.0 mg/kg/injection, schedule: Q04DX003 (ip), vehicle: Klucel (hydroxypropylcellulose) (HPC)). Besides, the T/C is 90 % of control under setting [3]; 100 % of control under setting [4]; 100 % of control (dose: 150.0 mg/kg/injection, schedule: Q01DX009 (ip), vehicle: Klucel (hydroxypropylcellulose) (HPC)); 109 % of control (dose: 150.0 mg/kg/injection, schedule: Q04DX003 (ip), vehicle: Klucel (hydroxypropylcellulose) (HPC)).
Regarding `CNC1C(O)C(OC2C(N)CC(N)C(OC3OC(CN)C(O)C(O)C3O)C2O)OCC1(C)O` (stereo unspecified), the T/C by setting is: under setting [3], 100 % of control; under setting [5], 91 % of control; (dose: 400.0 mg/kg/injection, schedule: Q01DX009 (ip), vehicle: saline) 108 % of control.
Regarding `O=[N+]([O-])c1ccc(SC2=NCCN2)c(Cl)c1`, the T/C by setting is: under setting [6], 94 % of control; under setting [7], 103 % of control; under setting [8], 112 % of control.
Consider `C(/C=N/N(c1ccccc1)c1ccccc1)=N\N(c1ccccc1)c1ccccc1`, for which the T/C runs as follows: under setting [4], 100 % of control; (dose: 200.0 mg/kg/injection, schedule: Q04DX003 (ip), vehicle: Klucel (hydroxypropylcellulose) (HPC)) 104 % of control; under setting [9], 104 % of control.
Turning to `O=C(Cl)c1ccc(N2C(=O)c3ccccc3C2=O)cc1[N+](=O)[O-]`, the T/C by setting is: under setting [6], 118 % of control; (dose: 50.0 mg/kg/injection, schedule: Q04DX003 (ip), vehicle: saline with Tween-80) 96 % of control; under setting [7], 121 % of control; (dose: 100.0 mg/kg/injection, schedule: Q04DX003 (ip), vehicle: saline with Tween-80) 102 % of control; under setting [8], 115 % of control; (dose: 200.0 mg/kg/injection, schedule: Q04DX003 (ip), vehicle: saline with Tween-80) 100 % of control. Moreover, the T/C was 101 % of control under setting [10] and 105 % of control (dose: 400.0 mg/kg/injection, schedule: Q04DX003 (ip), vehicle: saline with Tween-80).
Consider `CC12CCC(C(N)C1=O)C2(C)C` (stereo unspecified), for which the T/C was 107 % of control under setting [2]; 114 % of control under setting [3]; 101 % of control under setting [11]; 86 % of control under setting [5]; 104 % of control under setting [12].
Take `O=C(O)c1cc(I)cc(I)c1`: the T/C runs as follows: under setting [11], 100 % of control; under setting [12], 100 % of control; under setting [13], 160 % of control.
Take `Clc1ccccc1N1CN(c2ccccc2Cl)CN(c2ccccc2Cl)C1`: the T/C was 104 % of control under setting [6], 100 % of control under setting [7] and 100 % of control under setting [8].
Regarding `Cc1[nH]c(N)nc(=S)c1CCC(=O)Nc1ccc(C(=O)NC(CCC(=O)O)C(=O)O)cc1` (stereo unspecified), the T/C is 91 % of control under setting [6], 99 % of control under setting [7], 101 % of control under setting [8] and 106 % of control under setting [10].
In the case of `COc1cc(O)c2c(c1)Cc1cc(C)cc(O)c1C2=O`, the T/C by setting is: under setting [14], 101 % of control; under setting [15], 109 % of control.
In the case of `CC1=C(/C=C/C(C)=C/C=C/C(C)=C/C(=O)O)C(C)(C)CCC1`, the T/C by setting is: under setting [14], 95 % of control; under setting [15], 104 % of control; (dose: 25.0 mg/kg/injection, schedule: Q01DX009 (ip), vehicle: saline with Tween-80) 104 % of control.
On to `C=C1C(=O)OC2/C=C(\C)C(=O)/C=C\C(C)(O)CC(OC(=O)C(C)C)C12` (stereo unspecified), for which the T/C (dose: 25.0 mg/kg/injection, schedule: Q01DX009 (ip), vehicle: saline + alcohol) is 100 % of control.
`OC1C2CCC(CC2)C1O` (stereo unspecified): the T/C by setting is: (dose: 4.5 mg/kg/injection, schedule: Q01DX009 (ip), vehicle: saline with Tween-80) 100 % of control; (dose: 9.0 mg/kg/injection, schedule: Q01DX009 (ip), vehicle: saline with Tween-80) 86 % of control; (dose: 9.0 mg/kg/injection, schedule: Q04DX003 (ip), vehicle: saline with Tween-80) 90 % of control; (dose: 18.0 mg/kg/injection, schedule: Q04DX003 (ip), vehicle: saline with Tween-80) 90 % of control.
Turning to `COC1=C(C2(O)C(=O)N(C)c3ccccc32)C(=O)C(OC)=C(C2(O)C(=O)N(C)c3ccccc32)C1=O` (stereo unspecified), the T/C is 91 % of control (dose: 100.0 mg/kg/injection, schedule: Q01DX001 (ip), vehicle: saline with Tween-80); 89 % of control (dose: 200.0 mg/kg/injection, schedule: Q01DX001 (ip), vehicle: saline with Tween-80); 90 % of control (dose: 400.0 mg/kg/injection, schedule: Q01DX001 (ip), vehicle: saline with Tween-80).
Take `CC(=O)Nc1ccc(C)c([N+](=O)[O-])c1`: the T/C by setting is: under setting [2], 92 % of control; under setting [3], 97 % of control; under setting [11], 99 % of control; under setting [5], 118 % of control; under setting [12], 100 % of control; under setting [13], 90 % of control.
As for `C[n+]1ccc(Nc2ccc(NC(=O)c3ccc(Nc4cc[n+](C)c5ccc([N+](=O)[O-])cc45)cc3[N+](=O)[O-])cc2)cc1`, the T/C was 105 % of control and 116 % of control (dose: 25.0 mg/kg/injection, schedule: Q04DX003 (ip), vehicle: saline); 158 % of control and 203 % of control under setting [12].
In the case of `CCCCC(=O)N/N=C(\C)[C@]1(O)Cc2c(O)c3c(c(O)c2[C@@H](OC2CC(N)C(O)C(C)O2)C1)C(=O)c1c(OC)cccc1C3=O` (stereo partly specified), the T/C by setting is: (dose: 0.78 mg/kg/injection, schedule: Q01DX009 (ip), vehicle: saline) 109 % of control; (dose: 1.56 mg/kg/injection, schedule: Q01DX009 (ip), vehicle: saline) 109 % of control; (dose: 1.56 mg/kg/injection, schedule: Q01DX009 (ip), vehicle: water) 157 % of control; (dose: 3.12 mg/kg/injection, schedule: Q01DX009 (ip), vehicle: saline) 122 % of control; (dose: 3.12 mg/kg/injection, schedule: Q01DX009 (ip), vehicle: water) 172 % of control; (dose: 6.25 mg/kg/injection, schedule: Q01DX009 (ip), vehicle: saline) 178 % of control.
Take `CCn1cnc2c(C(F)(F)F)nc(N)nc21`: the T/C reads like this: (dose: 12.5 mg/kg/injection, schedule: Q01DX009 (ip), vehicle: Klucel (hydroxypropylcellulose) (HPC)) 100 % of control; (dose: 25.0 mg/kg/injection, schedule: Q01DX009 (ip), vehicle: Klucel (hydroxypropylcellulose) (HPC)) 110 % of control; (dose: 50.0 mg/kg/injection, schedule: Q01DX009 (ip), vehicle: Klucel (hydroxypropylcellulose) (HPC)) 110 % of control.
Take `O=C(c1ccccc1Cl)c1cccc2ccccc12`: the T/C runs as follows: (dose: 22.0 mg/kg/injection, schedule: Q01DX009 (ip), vehicle: Klucel (hydroxypropylcellulose) (HPC)) 100 % of control; (dose: 35.0 mg/kg/injection, schedule: Q01DX009 (ip), vehicle: Klucel (hydroxypropylcellulose) (HPC)) 100 % of control; (dose: 175.0 mg/kg/injection, schedule: Q04DX003 (ip), vehicle: Klucel (hydroxypropylcellulose) (HPC)) 100 % of control; under setting [9], 104 % of control; (dose: 600.0 mg/kg/injection, schedule: Q04DX003 (ip), vehicle: Klucel (hydroxypropylcellulose) (HPC)) 104 % of control.
Consider `C=C1C(=O)OC2CC3(C)CC(O)C(OC(C)=O)C(=C)C3CC12` (stereo unspecified), for which the T/C runs as follows: under setting [1], 104 % of control; under setting [2], 101 % of control.

The values above are taken from PubChem BioAssay AID328 (DTP/NCI, 2004).
